Source: patent publication US11572590B2, “Methods for evaluating tumor cell spheroids using 3D microfluidic cell culture device” (Dana-Farber Cancer Institute, Inc., priority 2017, dated 2023)
Where two headings read alike, the source gives them in different places.

Tests used:
off-target kinases [1] = molecular target: off-target kinases (Homo sapiens, UniProt P07949, G691S); assay: SelectScreen Kinase Profiling, single point inhibition and IC50 for off-target kinases; assay type: biochemical; conditions: RET G691S, mutant y, LanthaScreen Binding
off-target kinases [2] = molecular target: T1, off-target kinases (Homo sapiens, UniProt Q9UKI8); assay: as above; assay type: biochemical; conditions: TLK1, LanthaScreen Binding
T1 sequence (Q9UKI8 1-766): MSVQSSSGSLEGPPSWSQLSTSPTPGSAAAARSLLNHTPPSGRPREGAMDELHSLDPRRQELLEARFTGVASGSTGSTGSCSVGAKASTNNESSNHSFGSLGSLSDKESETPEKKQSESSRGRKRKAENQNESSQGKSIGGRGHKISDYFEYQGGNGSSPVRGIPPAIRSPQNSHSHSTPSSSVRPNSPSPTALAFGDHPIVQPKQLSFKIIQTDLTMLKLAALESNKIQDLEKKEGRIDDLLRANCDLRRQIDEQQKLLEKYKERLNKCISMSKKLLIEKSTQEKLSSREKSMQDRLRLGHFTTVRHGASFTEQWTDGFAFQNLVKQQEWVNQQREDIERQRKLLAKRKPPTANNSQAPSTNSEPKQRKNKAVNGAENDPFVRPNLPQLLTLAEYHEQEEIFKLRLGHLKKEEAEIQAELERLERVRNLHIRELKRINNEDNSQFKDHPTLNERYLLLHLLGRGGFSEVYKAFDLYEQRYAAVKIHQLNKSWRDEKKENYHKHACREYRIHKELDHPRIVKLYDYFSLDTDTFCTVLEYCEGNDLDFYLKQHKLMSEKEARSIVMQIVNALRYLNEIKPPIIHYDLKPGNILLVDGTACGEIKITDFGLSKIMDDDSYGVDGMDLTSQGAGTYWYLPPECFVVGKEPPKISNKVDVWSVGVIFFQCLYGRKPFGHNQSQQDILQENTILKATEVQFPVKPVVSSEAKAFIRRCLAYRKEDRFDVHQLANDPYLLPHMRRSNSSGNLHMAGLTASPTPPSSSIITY

Chain of off-target kinases (Homo sapiens, UniProt P07949, G691S) (P07949 29-1114 G691S): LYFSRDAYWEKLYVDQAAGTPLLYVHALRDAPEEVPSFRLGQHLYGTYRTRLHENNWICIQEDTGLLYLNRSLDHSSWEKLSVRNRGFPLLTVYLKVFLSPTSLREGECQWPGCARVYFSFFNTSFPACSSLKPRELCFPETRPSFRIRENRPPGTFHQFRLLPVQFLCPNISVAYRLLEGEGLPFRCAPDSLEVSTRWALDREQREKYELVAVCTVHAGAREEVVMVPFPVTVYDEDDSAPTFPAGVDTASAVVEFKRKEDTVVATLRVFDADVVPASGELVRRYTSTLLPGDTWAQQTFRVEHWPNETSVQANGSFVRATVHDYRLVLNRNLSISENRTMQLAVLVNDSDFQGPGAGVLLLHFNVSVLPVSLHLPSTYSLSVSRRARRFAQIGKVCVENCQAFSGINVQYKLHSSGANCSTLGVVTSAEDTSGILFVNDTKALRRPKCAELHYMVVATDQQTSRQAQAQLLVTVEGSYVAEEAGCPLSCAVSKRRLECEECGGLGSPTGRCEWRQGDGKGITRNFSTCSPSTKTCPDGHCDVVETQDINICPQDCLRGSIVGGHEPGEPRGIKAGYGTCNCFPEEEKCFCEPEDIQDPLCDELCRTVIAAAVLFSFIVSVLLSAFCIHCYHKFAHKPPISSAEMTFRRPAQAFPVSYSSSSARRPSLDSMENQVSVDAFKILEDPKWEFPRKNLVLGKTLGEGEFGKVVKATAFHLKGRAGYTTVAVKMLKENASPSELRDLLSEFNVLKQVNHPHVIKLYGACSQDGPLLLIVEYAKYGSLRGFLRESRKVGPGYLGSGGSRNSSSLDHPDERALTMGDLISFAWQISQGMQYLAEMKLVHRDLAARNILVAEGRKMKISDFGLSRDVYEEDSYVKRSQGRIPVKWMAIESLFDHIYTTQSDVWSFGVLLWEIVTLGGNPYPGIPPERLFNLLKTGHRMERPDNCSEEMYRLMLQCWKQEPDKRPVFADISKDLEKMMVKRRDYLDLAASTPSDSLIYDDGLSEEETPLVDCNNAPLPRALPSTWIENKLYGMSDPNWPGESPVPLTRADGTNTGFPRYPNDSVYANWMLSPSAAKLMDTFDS

`N#Cc1cc(-c2ncnc(Nc3ccc(N4CCN(C5COC5)CC4)cc3)n2)ccc1OC1CCOCC1` [Compound 1, 5-(4-((4-(4-(oxetan-3-yl)piperazin-1-yl)phenyl)amino)-1,3,5-triazin-2-yl)-2-((tetrahydro-2H-pyran-4-yl)oxy)benzonitrile] gave an inhibition (off-target kinases [1]; read-out: % Inhibition 1) of 19%, an inhibition (off-target kinases [1]; read-out: % Inhibition 2) of 18% and an inhibition (off-target kinases [1]; read-out: % Inhibition Avg) of 18%. It also gave an inhibition (off-target kinases [2]; read-out: % Inhibition 1) of 13%, an inhibition (off-target kinases [2]; read-out: % Inhibition 2) of 17% and an inhibition (off-target kinases [2]; read-out: % Inhibition Avg) of 15%.
